# Patent publication US11096952B2, “Chemicals and methods to prevent and treat TGF-beta mediated activation of fibroblasts to reduce and treat cancer and fibrosis” (Board of Supervisors of Louisiana State University and …, priority 2016, dated 2021)
# Key:
# [1] = system: transcriptional upregulation of activated fibroblasts markers by TGF-β or IL-8; details: MRC-5, 10 ng/mL TGF-β or 20 ng/ml IL-8, 24 hours; digoxin 150 nM, pyrvinium 300 nM
# Experimental: Expression of the indicated genes was analyzed by real-time qPCR. TGFβ treated samples were set at 1 and other conditions were normalized accordingly. FN1: fibronectin, YAPv4: yes-activated protein, TNC: tenascin C, Col1A1: collagen 1a1, WWTR1v2: WW domain-containing transcription regulator protein 1 (TAZ), and SNAI1: Snail1. Representative data from at least two independent experiments are provided.
# [2] = system: TGF-β-induced fibronectin expression; assay: Western blot of TGF-β-induced fibronectin in J2 mouse fibroblast cells; assay type: cell-based; details: J2 (3T3-J2) mouse fibroblasts, digoxin 30-240 nM, 5 ng/ml TGF-β, 24 hours
# Experimental: A) WPMY-1 human fibroblast cells transfected with SMAD (left) or EGR1 (right) luciferase reporter were treated with or without 5 ng/ml TGF-β in the presence or absence of Digoxin (60 or 120 nM) for 24 hours. Relative luciferase activity is shown. *P<0.05, **P<0.01, ***P<0.001 are significant differences compared to values set to 1 (n=3, Values are ±SEM). B) J2 mouse fibroblast cells were treated with or without 5 ng/ml TGF-β in the presence or absence of increasing concentrations (30, 60, 120, or 240 nM) of digoxin for 24 hours. Representative blot is shown with two exposures of fibronectin to account for strong signal intensity (n=3).
# Finally, J2 mouse fibroblast cells were treated with or without 5 ng/ml TGF-β in the presence or absence of increasing concentrations (30, 60, 120, or 240 nM) of digoxin for 24 hours.
# The inventors used 3T3-J2 murine fibroblasts, which are highly resistant to cardiac glycosides compared to theft human counterpart.
smiles,measurement,setting,value
C[C@H]1O[C@@H](O[C@H]2[C@@H](O)C[C@H](O[C@H]3[C@@H](O)C[C@H](O[C@H]4CC[C@@]5(C)[C@H](CC[C@@H]6[C@@H]5C[C@@H](O)[C@]5(C)[C@@H](C7=CC(=O)OC7)CC[C@]65O)C4)O[C@@H]3C)O[C@@H]2C)C[C@H](O)[C@@H]1O [digoxin],"transcriptional induction of collagen 1a1, tenascin C, fibronectin, YAP, Snail (TGF-β) and TAZ (IL-8)",[1],"prevented the transcriptional induction of collagen 1a1, tenascin C, fibronectin, YAP and Snail downstream of TGF-β signaling and TAZ downstream of the fibroblast chemokine IL-8"
same,TGF-β-induced fibronectin expression in mouse fibroblasts,[2],did not have an effect on TGF-β-induced fibronectin expression
same,TGF-β-induced fibronectin expression in mouse fibroblasts,[2]; listed as Digoxin,did not prevent fibronectin induction even at high concentrations
